# “Also recorded” adds a separate entry of the source. Marks after values point to notes of the source that are not given here.
# Assays:
# [1] = system: primary rat hepatocytes injured by D-GalN; assay: Hepatoprotective activity in primary rat hepatocytes injured by D-GalN (AST, LDH levels); assay type: cell-based; conditions: for AST / LDH: primary rat hepatocytes, 2 mM D-GalN, mean ± SD, n = 3; for AST: model 17.1 ± 2.4, control 6.9 ± 1.7; for LDH: model 253.5 ± 13.5, control 157.4 ± 11.7; for hepatoprotective activity (result in words): primary rat hepatocytes injured by D-GalN, compared to model group or between compounds
# Method: All the separated compounds were assessed for their hepatoprotective activities against the increase of AST and LDH levels in primary rat hepatocytes injured by D-GalN. The maximum nontoxic concentrations of tested compounds on primary rat hepatocytes were in the range of 120–240 μM. […] (Table 2).
# Isolated rat hepatocytes were prepared from male Wistar rats by a collagenase perfusion technique as described previously. The D-GalN concentration used for cell culture treatment was previously determined according to a modification of the method of Morikawa et al.. The cultured cells in logarithmic growth phase were made into a single-cell suspension and seeded in 96-well plates (1 × 10^4 cells/well) in the DMEM/F 12 with 2% FBS complete medium for 24 h at 37 °C. Then, the hepatocytes were exposed to 2 mM D-GalN for 2 h to induce hepatotoxocity. The medium with silibin meglumine (as positive drug, purity 95.6%, Hunan Xieli Pharmaceutical Co., Ltd., Zhuzhou, China) and different concentrations of test compounds was mixed in cell medium (final test compounds concentration were 30 μM, 60 μM and 120 μM, respectively), and incubated for 24 h. The obtained reacted supernatant was directly used to detect ALT and AST levels. The control group was a set of cells maintained in culture medium, while the model group was a set of cells maintained in culture medium and treated only with D-GalN. All data are expressed as the mean ± SD of at least three independent experiments as indicated. The test for the paired samples was used to determine statistical difference between parameters. These differences were considered significant for p < 0.05 or 0.01.
# phospholipase A2 (PLA2) = assay: Assay for inhibition against PLA2; assay type: biochemical; conditions: PLA2 enzyme 5 μg/mL, pH 8.2, 40 °C, 30 min, OD 495 nm; three repeats
# Method: As a regulator associated with the stability of the liver cell membrane, phospholipase A2 (PLA2) is a promising target for hepatoprotective drug development.
# The PLA2 inhibitory assays of compounds 1–11 and the positive drug diethylenetriaminepentaacetic acid (Purchased from Aladdin, Los Angeles, CA, USA, purity > 98.0%) were carried out according to the literature. First of all, each tube was added with 1 mL fresh substrate buffer solution (pH = 8.2). After that, 50 μL tested compounds at various concentrations were placed at reaction tube and blank tube, respectively. As for control tube, 50 μL deionized water was instead. Then each tube incubated at 40 °C for 10 minutes. The reaction tube and blank tube were followed by the treatment with PLA2 enzyme (5 μL) at the concentration of 5 μg/mL. Before put them into the incubator at the temperature of 40 °C to react 30 minutes, the content of the tube should be fully blending. The optical density value of each tube was then read in an ELISA plate reader using a wavelength of 495 nm. The IC50 values were calculated from concentration-response curves by means of the GraphPad Prism 5.0 Software (San Diego, CA, USA). Each experiment was repeated three times to get the mean values.
SMILES,AST ([1]; 50 μM (positive drug)),LDH ([1]; 50 μM (positive drug)),IC50 (phospholipase A2 (PLA2)),AST ([1]; 30 μM compound),LDH ([1]; 30 μM compound),AST ([1]; 60 μM compound),LDH ([1]; 60 μM compound),AST ([1]; 120 μM compound),LDH ([1]; 120 μM compound),hepatoprotective activity (result in words) [1]
"CNCC(O)C(O)C(O)C(O)CO.COc1cc(C2Oc3cc(C4Oc5cc(O)cc(O)c5C(=O)C4O)ccc3OC2CO)ccc1O (stereo not drawn) [Silibinin Meglumine, reference compound]",10.3 ± 2.2 ^d U·L^−1,219.1 ± 10.9 ^d U·L^−1,,,,,,,,
"CC12CCC3(C)C(=CC(=O)C4C5(C)CCC(OC6OC(C(=O)O)C(O)C(O)C6OC6OC(C(=O)O)C(O)C(O)C6O)C(C)(C)C5CCC43C)C1CC(C)(C(=O)O)C(O)C2 (stereo not drawn) [Compound 2, macedonoside A]",,,6.9 ± 0.5 µM,14.6 ± 3.1 U·L^−1,231.0 ± 18.3 ^c U·L^−1,13.1 ± 2.1 ^c U·L^−1,213.7 ± 19.6 ^d U·L^−1,11.2 ± 1.9 ^d U·L^−1,215.9 ± 8.2 ^d U·L^−1,notably lowered AST; also recorded: significant hepatoprotective activities
"CC1(C(=O)O)CCC2(C)CCC3(C)C(=CC(=O)C4C5(C)CCC(OC6OC(C(=O)O)C(O)C(O)C6OC6OC(C(=O)O)C(O)C(O)C6O)C(C)(CO)C5CCC43C)C2C1 [Compound 3, 3β-O-[β-D-glucuronpyranosyl-(1→2)-β-D-glucuron-pyranosyl]-24-hydroxy-18α-glycyrrhetic acid]",,,3.6 ± 0.3 µM,13.3 ± 2.9 ^c U·L^−1,224.6 ± 21.4 ^c U·L^−1,12.9 ± 3.2 ^d U·L^−1,208.6 ± 16.0 ^d U·L^−1,10.8 ± 2.8 ^d U·L^−1,200.7 ± 15.1 ^d U·L^−1,notably lowered AST; also recorded: higher activity than compound 4; also recorded: significant hepatoprotective activities
"CC(=O)OC1CC(C)(C=O)CC2C3=CC(=O)C4C5(C)CCC(OC6OC(C(=O)O)C(O)C(O)C6OC6OC(C(=O)O)C(O)C(O)C6O)C(C)(C)C5CCC4(C)C3(C)CCC12C (stereo not drawn) [Compound 9, 22β-acetoxyglycyrrhaldehyde]",,,> 50 µM,,,,,,,
"O=C(O)CN(CCN(CC(=O)O)CC(=O)O)CCN(CC(=O)O)CC(=O)O [Diethylenetriaminepentaacetic acid, reference compound]",,,1.8 ± 0.1 µM,,,,,,,
"CC1(C(=O)O)CCC2(C)CCC3(C)C(=CC(=O)C4C5(C)CCC(OC6OC(C(=O)O)C(O)C(O)C6OC6OC(C(=O)O)C(O)C(O)C6O)C(C)(CO)C5CCC43C)C2C1 (stereo not drawn) [Compound 4, licorice-saponin G2]",,,16.9 ± 0.3 µM,14.8 ± 2.9 U·L^−1,237.2 ± 16.4 U·L^−1,13.7 ± 2.6 ^c U·L^−1,232.7 ± 25.7 U·L^−1,12.6 ± 2.8 ^c U·L^−1,224.9 ± 25.2 ^c U·L^−1,notably lowered AST; also recorded: significant hepatoprotective activities
"CC(=O)OC1CC(C)(C(=O)O)CC2C3=CC(=O)C4C5(C)CCC(OC6OC(C(=O)O)C(O)C(O)C6OC6OC(C(=O)O)C(O)C(O)C6O)C(C)(C)C5CCC4(C)C3(C)CCC12C (stereo not drawn) [Compound 6, 22β-acetoxyglycyrrhizin]",,,27.1 ± 0.9 µM,16.5 ± 2.2 U·L^−1,242.8 ± 15.2 U·L^−1,14.6 ± 3.0 U·L^−1,228.7 ± 14.0 ^c U·L^−1,13.2 ± 2.7 ^c U·L^−1,221.7 ± 19.5 ^d U·L^−1,notably lowered AST; also recorded: significant hepatoprotective activities
"CC1(C)[C@@H](O[C@H]2O[C@H](C(=O)O)[C@@H](O)[C@H](O)[C@H]2O[C@@H]2O[C@H](C(=O)O)[C@@H](O)[C@H](O)[C@H]2O)CC[C@]2(C)[C@H]3C(=O)C=C4[C@@H]5C[C@@](C)(C(=O)O)CC[C@]5(C)CC[C@@]4(C)[C@]3(C)CC[C@@H]12 [Compound 11, glycyrrhizin]",,,9.3 ± 0.8 µM,14.1 ± 2.1 ^c U·L^−1,236.3 ± 9.4 ^c U·L^−1,13.0 ± 2.2 ^c U·L^−1,219.1 ± 19.3 ^d U·L^−1,11.6 ± 1.8 ^d U·L^−1,207.8 ± 21.9 ^d U·L^−1,notably lowered AST; also recorded: stronger activity than 1; also recorded: significant hepatoprotective activities
"CC12CC(OC1=O)C1(C)CCC3(C)C(=CC(=O)C4C5(C)CCC(OC6OC(C(=O)O)C(O)C(O)C6OC6OC(C(=O)O)C(O)C(O)C6O)C(C)(CO)C5CCC43C)C1C2 (stereo not drawn) [Compound 8, 24-hydroxylicorice-saponin E2]",,,> 50 µM,,,,,,,
"CC12CCC(CO)(C(=O)O)CC1C1=CC(=O)C3C4(C)CCC(OC5OC(C(=O)O)C(O)C(O)C5OC5OC(C(=O)O)C(O)C(O)C5O)C(C)(C)C4CCC3(C)C1(C)CC2 [Compound 1, 3β-O-[β-D-glucuronopyranosyl-(1→2)-β-D-glucuronopyranosyl]-29-hydroxyglycyrrhetic acid]",,,> 50 µM,,,,,,,
"CC12CC(OC1=O)C1(C)CCC3(C)C(=CC(=O)C4C5(C)CCC(OC6OC(C(=O)O)C(O)C(O)C6OC6OC(C(=O)O)C(O)C(O)C6O)C(C)(C)C5CCC43C)C1C2 (stereo not drawn) [Compound 5, licorice-saponin E2]",,,> 50 µM,,,,,,,significantly weaker hepatoprotective activities than the compound 2 and 11
"CC1(C(=O)OC2OC(CO)C(O)C(O)C2O)CCC2(C)CCC3(C)C(=CC(=O)C4C5(C)CCC(OC6OC(C(=O)O)C(O)C(O)C6OC6OC(C(=O)O)C(O)C(O)C6O)C(C)(CO)C5CCC43C)C2C1 (stereo not drawn) [Compound 10, licorice-saponin A3]",,,> 50 µM,,,,,,,
"CC1(C)C(OC2OC(C(=O)O)C(O)C(O)C2OC2OC(C(=O)O)C(O)C(O)C2O)CCC2(C)C1CCC1(C)C2C(=O)C=C2C3CC4(C(=O)O)CC(OC4=O)C3(C)CCC21C (stereo not drawn) [Compound 7, uralsaponin D]",,,32.2 ± 0.5 µM,,,,,,,significantly weaker hepatoprotective activities than the compound 2 and 11

# — PMC6272637, “Hepatoprotective Triterpene Saponins from the Roots of Glycyrrhiza inflata” (Molecules, 2015)
